ChEMBL document CHEMBL1137285, “1-Alkyl-2-aryl-4-(1-naphthoyl)pyrroles: new high affinity ligands for the cannabinoid CB1 and CB2 receptors” (Bioorg Med Chem Lett, 2006)

Key:
[1] = target: Cannabinoid receptor 1 (Rattus norvegicus, UniProt P20272); test: Displacement of [3H]CP-55940 from CB1 receptor in rat brain; type: tissue-based
[2] = target: Cannabinoid receptor 2 (Homo sapiens, UniProt P34972); test: Displacement of [3H]CP-55940 from human cloned CB2 receptor
Sequence of Cannabinoid receptor 2 (P34972 whole entry): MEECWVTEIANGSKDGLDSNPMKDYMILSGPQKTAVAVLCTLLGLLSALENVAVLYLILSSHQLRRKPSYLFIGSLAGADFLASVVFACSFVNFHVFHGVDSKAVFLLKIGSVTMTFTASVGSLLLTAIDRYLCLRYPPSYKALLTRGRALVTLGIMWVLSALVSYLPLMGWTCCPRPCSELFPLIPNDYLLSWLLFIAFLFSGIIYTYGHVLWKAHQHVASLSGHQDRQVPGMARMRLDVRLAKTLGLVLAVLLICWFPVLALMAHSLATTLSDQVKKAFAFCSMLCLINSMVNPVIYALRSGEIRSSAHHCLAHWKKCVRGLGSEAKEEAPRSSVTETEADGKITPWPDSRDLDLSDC

Sequence of Cannabinoid receptor 1 (P20272 whole entry): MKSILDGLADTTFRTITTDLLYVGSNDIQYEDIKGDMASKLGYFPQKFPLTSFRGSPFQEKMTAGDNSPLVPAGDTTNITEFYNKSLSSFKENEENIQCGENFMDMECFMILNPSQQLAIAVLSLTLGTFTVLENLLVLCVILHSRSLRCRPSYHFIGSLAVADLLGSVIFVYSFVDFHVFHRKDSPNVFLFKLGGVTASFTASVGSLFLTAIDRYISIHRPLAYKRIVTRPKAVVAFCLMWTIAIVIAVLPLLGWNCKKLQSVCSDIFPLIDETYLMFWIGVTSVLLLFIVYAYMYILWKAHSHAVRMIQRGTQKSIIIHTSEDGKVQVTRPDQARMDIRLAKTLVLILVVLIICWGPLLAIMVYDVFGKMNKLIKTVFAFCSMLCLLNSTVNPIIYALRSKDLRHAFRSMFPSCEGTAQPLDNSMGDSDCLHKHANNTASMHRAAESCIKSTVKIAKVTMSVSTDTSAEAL

Compound	Ki [1]	Ki [2]
CCCCn1cc(C(=O)c2cccc3ccccc23)cc1-c1ccccc1	60 nM	15 nM
CCCCCn1cc(C(=O)c2cccc3ccccc23)cc1-c1ccccc1Cl	7.9 nM	5.2 nM
CCCCCn1cc(C(=O)c2cccc3ccccc23)cc1-c1ccccc1F	7.7 nM	3.3 nM
CCCn1cc(C(=O)c2cccc3ccccc23)cc1-c1ccccc1	404 nM	104 nM
CCCCCn1cc(C(=O)c2cccc3ccccc23)cc1-c1ccccc1OC	29 nM	20 nM
CCCCCn1cc(C(=O)c2cccc3ccccc23)cc1-c1cccc([N+](=O)[O-])c1	100 nM	41 nM
CCCCCn1cc(C(=O)c2cccc3ccccc23)cc1-c1cccnc1	191 nM	24 nM
CCCCCn1cc(C(=O)c2cccc3ccccc23)cc1-c1ccc(Cl)cc1	276 nM	25 nM
CCCCCn1cc(C(=O)c2cccc3ccccc23)cc1-c1cccc(C)c1	67 nM	39 nM
CCCCCn1cc(C(=O)c2cccc3ccccc23)cc1-c1cccc(C(F)(F)F)c1	245 nM	71 nM
CCCCCn1cc(C(=O)c2cccc3ccccc23)cc1-c1ccc(CCCC)cc1	42 nM	64 nM
CCCCCCCn1cc(C(=O)c2cccc3ccccc23)cc1-c1ccccc1	21 nM	62 nM
CCCCCn1cc(C(=O)c2cccc3ccccc23)cc1-c1ccccc1C	5.6 nM	4 nM
CCCCCn1cc(C(=O)c2cccc3ccccc23)cc1-c1cccc(F)c1	16 nM	9.1 nM
CCCCCn1cc(C(=O)c2cccc3ccccc23)cc1-c1ccccc1CC	17 nM	3.4 nM
CCCCCn1cc(C(=O)c2cccc3ccccc23)cc1-c1ccc(OC)cc1	285 nM	41 nM
CCCCCn1cc(C(=O)c2cccc3ccccc23)cc1-c1ccc2ccccc2c1	333 nM	169 nM
CCCCCn1cc(C(=O)c2cccc3ccccc23)cc1-c1ccc(F)cc1	41 nM	33 nM
CCCCCn1cc(C(=O)c2cccc3ccccc23)cc1-c1cccc(Cl)c1	70 nM	16 nM
CCCCCCn1cc(C(=O)c2cccc3ccccc23)cc1-c1ccccc1	11 nM	7.1 nM
CCCCCn1cc(C(=O)c2cccc3ccccc23)cc1-c1ccc(C(F)(F)F)cc1	218 nM	53 nM
CCCCCn1cc(C(=O)c2cccc3ccccc23)cc1-c1ccccc1CCCC	60 nM	69 nM
CCCCCn1cc(C(=O)c2cccc3ccccc23)cc1-c1cccc2ccccc12	41 nM	49 nM
CCCCCn1cc(C(=O)c2cccc3ccccc23)cc1-c1ccccc1C(F)(F)F	77 nM	8.2 nM
CCCCCn1cc(C(=O)c2cccc3ccccc23)cc1-c1ccc(C)cc1	130 nM	18 nM
CCCCCn1cc(C(=O)c2cccc3ccccc23)cc1-c1ccccc1	14 nM	6.4 nM
CCCCCn1cc(C(=O)c2cccc3ccccc23)cc1-c1cccc(OC)c1	53 nM	23 nM
CCCCCn1cc(C(=O)c2cccc3ccccc23)cc1-c1ccc(CC)cc1	34 nM	29 nM
